In the experiment the test system is RSV A2. The experiment is described as follows: RSV antiviral cytopathic effect (CPE) assay in HEp2 cells, MTT readout. The class given is cell-based, respiratory syncytial virus. Particulars: human respiratory syncytial virus, HEp-2, 120 h; HEp2 cells infected with RSV A2, moi ~0.01, 5 days, inhibition of CPE by 50%; read-out: Activity Range (RSV A2 EC50 mean values). Here is the method:
RSV Antiviral Assay Protocol
Compounds of the invention were tested for their antiviral activity against respiratory syncytial virus. Cytopathic effect (CPE) assays were performed essentially as described in the literature (see, for example, Watanabe et al, 1994, J. Virological Methods, 48:257). Serial dilutions of the test compounds were made in 96 well plates. HEp2 cells (1.0×10^4 cells/well) were infected with RSV at a low multiplicity of infection (e.g. RSV A2 at an moi of ˜0.01) and added to plates to assess antiviral activity. Uninfected HEp2 cells were used to assess compound cytotoxicity. Assays were incubated for 5 days at 37° C. in a 5% CO2 atmosphere. The extent of CPE was determined via metabolism of the vital dye 3-(4,5-dimethylthiaxol-2-yl)-2,5-diphenyltetrazolium bromide (MTT). MTT (1 mg/ml) was added to each well and plates incubated for 2 hours incubation at 37° C. Wells were aspirated, iso-propanol (200 μL) was added and absorbance values read at 540/650 nm. Compound concentrations that inhibited CPE by 50% (EC50) and developed cytotoxicity (CC50) were calculated using non-linear regression analysis.
In the inventors' experience, replicate EC50 values usually fall within three standard deviations of the mean.

Bounds are passed on as bounds.

In general, EC50 refers to the concentration at which the effect is half-maximal.

In the case of `O=C(NCc1ccccc1)N1CCN2C(=O)c3cc4ccsc4n3CC12c1ccc(F)cc1` (stereo not shown) [Compound 23, N-benzyl-11a-(4-fluorophenyl)-5-oxo-2,3,11,11a-tetrahydro-1H,5H-imidazo[1,2-a]thieno[3′,2′:4,5]pyrrolo[1,2-d]pyrazine-1-carboxamide], the EC50 is over 10 µM.

These data come from US9359377B2, “Substituted imidazo[1,2-a]imidazo[4′,5′:4,5]pyrrolo[1,2-d]pyrazines for treating respiratory syncytial virus infections” (Biota Scientific Management Pty Ltd., priority 2011, dated 2016).
